ChEMBL document CHEMBL2010766, “Bivalent Ligands for the Serotonin 5-HT3 Receptor” (ACS Med Chem Lett, 2011)
pKi: −log10 of the molar value.

These compounds were tested against T1, 5-hydroxytryptamine receptor 3A (Rattus norvegicus, UniProt P35563) (assay: Displacement of [3H]granisetron from 5HT3 receptor in Wistar rat cortical membranes by liquid scintillation spectrometry).
T1 sequence (P35563 whole entry): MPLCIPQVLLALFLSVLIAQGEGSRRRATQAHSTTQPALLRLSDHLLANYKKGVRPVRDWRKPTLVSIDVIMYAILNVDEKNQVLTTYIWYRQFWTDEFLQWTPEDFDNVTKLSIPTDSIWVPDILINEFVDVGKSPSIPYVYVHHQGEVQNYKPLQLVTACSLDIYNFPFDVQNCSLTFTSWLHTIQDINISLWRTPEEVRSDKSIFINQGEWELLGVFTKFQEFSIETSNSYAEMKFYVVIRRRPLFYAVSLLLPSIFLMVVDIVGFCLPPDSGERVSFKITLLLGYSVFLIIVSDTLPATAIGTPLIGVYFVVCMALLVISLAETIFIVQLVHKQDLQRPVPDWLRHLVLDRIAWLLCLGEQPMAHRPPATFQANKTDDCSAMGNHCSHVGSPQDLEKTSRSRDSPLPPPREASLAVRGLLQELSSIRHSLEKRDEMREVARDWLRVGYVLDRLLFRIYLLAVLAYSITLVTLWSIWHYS
Format: cell membranes, Membrane
Cc1c(N2CCN(C)CC2)nc2ccccc2c1C(=O)NCCOCCOCCOCCOCCOCCOCCOCCOCCOCCNC(=O)OC(C)(C)C was tested, and the pKi was 7.15. Compound Cc1c(N2CCN(C)CC2)nc2ccccc2c1C(=O)NCCCCCCCNc1c2c(nc3ccccc13)CCCC2 has a pKi of 8.25. Compound Cc1c(N2CCN(C)CC2)nc2ccccc2c1C(=O)NCCOCCOCCNC(=O)OC(C)(C)C has a pKi of 6.88. Cc1c(N2CCN(C)CC2)nc2ccccc2c1C(=O)NCCCCCCCNC(=O)NC[13C](=O)O was tested, and the pKi was 7.59. Cc1c(N2CCN(C)CC2)nc2ccccc2c1C(=O)NCCOCCOCCNC(=O)c1c(C)c(N2CCN(C)CC2)nc2ccccc12 showed a pKi of 8.11. Cc1c(N2CCN(C)CC2)nc2ccccc2c1C(=O)NCCCCCCCCNC(=O)c1c(C)c(N2CCN(C)CC2)nc2ccccc12 was tested, and the pKi was 7.17. Cc1c(N2CCN(C)CC2)nc2ccccc2c1C(=O)NCCCCCCNc1c2c(nc3ccccc13)CCCC2 was tested, and the pKi was 7.15. In the case of Cc1c(N2CCN(C)CC2)nc2ccccc2c1C(=O)NCCCCCCNC(=O)OC(C)(C)C, the pKi was 6.75. Cc1c(N2CCN(C)CC2)nc2ccccc2c1C(=O)NCCOCCOCCNC(=O)NC[13C](=O)O was tested, and the pKi was 6.85. Cc1c(N2CCN(C)CC2)nc2ccccc2c1C(=O)NCCCCCCCCNC(=O)OC(C)(C)C was tested, and the pKi was 6.90. In the case of Cc1c(N2CCN(C)CC2)nc2ccccc2c1C(=O)NCCCCCCNC(=O)c1c(C)c(N2CCN(C)CC2)nc2ccccc12, the pKi was 7.55. Compound Cc1c(N2CCN(C)CC2)nc2ccccc2c1C(=O)NCCCCCCCCNc1c2c(nc3ccccc13)CCCC2 has a pKi of 7.16. With Cc1c(N2CCN(C)CC2)nc2ccccc2c1C(=O)NCCCCCCCNC(=O)OC(C)(C)C the pKi was 7.74. Compound Cc1c(N2CCN(C)CC2)nc2ccccc2c1C(=O)NCCOCCOCCOCCOCCOCCOCCOCCOCCOCCNC(=O)c1c(C)c(N2CCN(C)CC2)nc2ccccc12 has a pKi of 7.82. Compound Cc1c(N2CCN(C)CC2)nc2ccccc2c1C(=O)NCCOCCOCCOCCOCCOCCOCCOCCNC(=O)c1c(C)c(N2CCN(C)CC2)nc2ccccc12 has a pKi of 7.57. Cc1c(N2CCN(C)CC2)nc2ccccc2c1C(=O)NCCCCCCCNC(=O)c1c(C)c(N2CCN(C)CC2)nc2ccccc12 gave a pKi of 8.57. Work on Cc1c(N2CCN(C)CC2)nc2ccccc2c1C(=O)NCCOCCOCCOCCOCCOCCOCCOCCOCCOCCNC(=O)NC[13C](=O)O yielded a pKi of 6.81. Cc1c(N2CCN(C)CC2)nc2ccccc2c1C(=O)NCCOCCOCCOCCOCCOCCOCCOCCNC(=O)NC[13C](=O)O showed a pKi of 6.97. For Cc1c(N2CCN(C)CC2)nc2ccccc2c1C(=O)NCCOCCOCCOCCOCCOCCOCCOCCNC(=O)OC(C)(C)C, the pKi was 7.05.
